Data published in patent US20260258050A1, “IMMUNOMODULATOR” (HITGEN INC., priority 2023, published 2026).

The compounds below were run against T1, Human IL-17A (Homo sapiens, UniProt Q16552) (assay: IL-17A enzyme-linked immunosorbent assay (competitive ELISA, IL-17A/IL-17Ra receptor-ligand binding)). Conditions: human IL-17A coated plate, human IL-17Ra, read-out: IC50, inhibitory activity of compounds on human IL-17A.
T1 sequence (Q16552 20-155 limits assumed): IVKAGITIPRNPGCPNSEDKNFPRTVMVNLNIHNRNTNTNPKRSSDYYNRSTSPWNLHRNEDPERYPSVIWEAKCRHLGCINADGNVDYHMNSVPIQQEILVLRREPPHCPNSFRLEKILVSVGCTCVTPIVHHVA
Design: purchased Sino Biological Inc. 12047-H07B
Summary of the method: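 Competitive ELISA with plates coated with human IL-17A at 0.2 μg/ml, blocked with 5% skim milk. Compound pre-incubated with IL-17A 10 min at 25 °C, then 16 nM IL-17Ra stock added for 30 min. Bound receptor detected by anti-Fc HRP/TMB, A450. IC50 from variable-slope fit of blank-corrected residual activity.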

IC50, ≤ 50 nM:
Cc1[nH]nc2c1-c1cnc(NC(=O)[C@@H](NC(=O)c3ccnn3C(C)C)C(C3CC3)C3CC3)cc1CN(C1CCC1)CC2 [compound 201]
Cc1[nH]nc2c1-c1cnc(NC(=O)[C@@H](NC(=O)c3ccnn3C(C)C)C(C3CC3)C3CC3)cc1CN(CC(F)F)CC2 [compound 202]
Cc1[nH]nc2c1-c1cnc(NC(=O)[C@@H](NC(=O)c3ccnn3C(C)C)C(C3CC3)C3CC3)cc1CN(CC(F)F)C(=O)C2 [compound 192]
Cc1[nH]nc2c1-c1cnc(NC(=O)[C@@H](NC(=O)c3ccnn3C(C)C3CC3)C(C3CC3)C3CC3)cc1COCC2 (single isomer, unassigned) [compound 188a]
Cc1[nH]nc2c1-c1cc(F)c(NC(=O)[C@@H](NC(=O)c3ccnn3CCOC3CC3)C(C3CC3)C3CC3)cc1COCC2 [compound 102]
Cc1[nH]nc2c1-c1cc(F)c(NC(=O)[C@@H](NC(=O)c3ccnn3C(C)CF)C(C3CC3)C3CC3)cc1COCC2 (single isomer, unassigned) [compound 42a]
CCOCCn1nccc1C(=O)N[C@H](C(=O)Nc1cc2c(cc1F)-c1c(n[nH]c1C)CCOC2)C(C1CC1)C1CC1 [compound 100]
Cc1[nH]nc2c1-c1cnc(NC(=O)[C@@H](NC(=O)c3conc3C(C)C)C(C3CC3)C3CC3)cc1COCC2 [compound 234]
Cc1[nH]nc2c1-c1cnc(NC(=O)[C@@H](NC(=O)c3ccnn3C(C)C)C(C3CC3)C3CC3)cc1CN(Cc1ccccc1)C(=O)C2 [compound 182]
CCCn1nccc1C(=O)N[C@H](C(=O)Nc1cc2c(cc1F)-c1c(n[nH]c1C)CCOC2)C(C1CC1)C1CC1 [compound 62]
Cc1[nH]nc2c1-c1cc(F)c(NC(=O)[C@@H](NC(=O)c3ccnn3CC3(C#N)CC3)C(C3CC3)C3CC3)cc1COCC2 [compound 114]
CC(=O)N1CCc2n[nH]c(C)c2-c2cnc(NC(=O)[C@@H](NC(=O)c3ccnn3C(C)C)C(C3CC3)C3CC3)cc2C1 [compound 196]
Cc1[nH]nc2c1-c1cc(F)c(NC(=O)[C@@H](NC(=O)c3ccnn3CCCF)C(C3CC3)C3CC3)cc1CN(C1CC1)CC2 [compound 218]
Cc1[nH]nc2c1-c1cnc(NC(=O)[C@@H](NC(=O)c3ccnn3C(C)CF)C(C3CC3)C3CC3)cc1COCC2 (single isomer, unassigned) [compound 189a]
Cc1[nH]nc2c1-c1cc(F)c(NC(=O)[C@@H](NC(=O)c3ccnn3C(C)C)C(C3CC3)C3CC3)cc1CN(CC1CC1)CC2 [compound 166]
Cc1[nH]nc2c1-c1cc(F)c(NC(=O)[C@@H](NC(=O)c3ccnn3C(C)C)C3CCCCC3)cc1COCC2 [compound 48]
Cc1[nH]nc2c1-c1cnc(NC(=O)[C@@H](NC(=O)c3ccnn3C(C)C)C(C3CC3)C3CC3)cc1CN(CC(C)(F)F)CC2 [compound 199]
[2H]C([2H])([2H])C([2H])(n1nccc1C(=O)N[C@H](C(=O)Nc1ccc2c(c1)COCCc1n[nH]c(C)c1-2)C(C1CC1)C1CC1)C([2H])([2H])[2H] [compound 52]
Cc1[nH]nc2c1-c1cc(F)c(NC(=O)[C@@H](NC(=O)c3ccnn3C(C)C)C(C3CC3)C3CC3)cc1CN(C1CCC1)C(=O)C2 [compound 170]
Cc1[nH]nc2c1-c1cc(F)c(NC(=O)[C@@H](NC(=O)c3ccnn3CC3COC3)C(C3CC3)C3CC3)cc1COCC2 [compound 115]
Cc1[nH]nc2c1-c1cnc(NC(=O)[C@@H](NC(=O)c3ccnn3C(C)CF)C(C3CC3)C3CC3)cc1COCC2 (single isomer, unassigned) [compound 189b]
CCn1nccc1C(=O)N[C@H](C(=O)Nc1cc2c(cn1)-c1c(n[nH]c1C)CCN(C1CC1)C2)C(C1CC1)C1CC1 [compound 217]
Cc1[nH]nc2c1-c1cc(F)c(NC(=O)[C@@H](NC(=O)c3ccnn3CCOC(C)(C)C)C(C3CC3)C3CC3)cc1COCC2 [compound 113]
Cc1[nH]nc2c1-c1cc(F)c(NC(=O)[C@@H](NC(=O)c3ccnn3CCCC(F)(F)F)C(C3CC3)C3CC3)cc1COCC2 [compound 84]
